Among the data in the METLIN SMRT retention time set (Domingo-Almenara et al. 2019) are RP-LC retention time values, retold here.

The data set in a line: gradient 5% acetonitrile 3 min, to 50% in 2 min, to 85% in 15 min, held 3 min, 100 µL/min. The conditions noted are these: column: Zorbax Extend-C18 2.1 x 50 mm; eluents: water / acetonitrile, 0.1% formic acid. The essentials:
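Retention times come from adduct peaks that were picked computationally and then checked by hand. The standards, pure and pooled in mixtures of ~100 molecules, were run on a Zorbax Extend-C18 column (2.1 × 50 mm, 1.8 μm) at 100 μL/min with water and acetonitrile, each with 0.1% formic acid. Detection was by quadrupole time-of-flight mass spectrometry in positive and negative ionization mode, with a dead volume of 40 μL and a dwell volume of 900 μL.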
Compound `CN1C(=O)c2cccn2CC1CNC(=O)c1cccn1C` (centres undefined) gave an RP-LC retention time of 636 s. In the case of `O=C(Nc1nccs1)C1CCN(C(=O)C2CC(=O)N(c3ccc(F)cc3)C2)CC1` (centres undefined) it was 672 s.

`O=S(=O)(c1ccccc1)N1[C@H]2CC[C@@H]1c1cncnc1C2`: the RP-LC retention time is 678 s. In the case of `CC(=O)[C@H]1CCC2C3CC[C@H]4C[C@H](O)CC[C@]4(C)C3CC[C@@]21C` (some centres undefined) it was 1270 s; in that of `CCc1nc2c(c(=O)n1CC(=O)Nc1ccc(C(C)C)cc1)CN(Cc1ccccc1)CC2`, 753 s. In the case of `Fc1ccc(-c2nc(-c3ccc4c(c3)ncn4CCN3CCOCC3)no2)cc1` it was 632 s; in that of `Cc1cc(OCC(=O)Nc2ccnn2Cc2ccco2)cc(C)c1Cl`, 953 s. `Cc1ccc(C)c(NC(=O)C2CC(=O)N(CCc3c[nH]c4ccc(F)cc34)C2)c1` (centres undefined) showed an RP-LC retention time of 586 s. With `CCNS(=O)(=O)c1ccc(NC(=O)C2CCN(C(=O)C(C)(C)C)CC2)cc1` the figure was 722 s; with `CCOc1ccc(NC(=O)NC2CCN(c3cc(C)cc(C)c3)C2=O)cc1` (centres undefined), 886 s; with `CCCn1cc(C(=O)N2CCOCC2)c2cccnc21`, 640 s. With `O=C(CC(c1ccccc1)c1ccccc1)NCCCn1ncccc1=O` the figure was 702 s; with `Cc1cc(C)cc(Oc2cc(N3CCC(C(=O)NCCc4ccccc4)CC3)ncn2)c1`, 986 s; with `Cn1nc(-c2nc(-c3ccccc3)no2)c2c1CCN(C(=O)NC1CCCCC1)C2`, 914 s. `CCOC(=O)N1CCN(c2cc(C(=O)O)c3cc(NC(=O)c4ccc(Cl)cc4)ccc3n2)CC1` registered an RP-LC retention time of 667 s. In the case of `CC(C)c1ccc(NC(=O)Cc2nnc(-c3ccc4ncccc4c3)o2)cc1` it was 854 s; in that of `CCn1cc(CC(=O)NCC2CC2)c2cccnc21`, 624 s. With `Cc1nc2cccnc2n1C1CCN(C(=O)Nc2ccc(F)cc2F)CC1`, the RP-LC retention time was 619 s. With `CN(C)CCn1cc(C(=O)NCc2cccs2)ccc1=O` the figure was 578 s. As for `COc1cc(O)c(C(=O)/C=C/c2ccccc2)c(OC)c1`, the RP-LC retention time was 1220 s. In the case of `COc1ccc(OC)c(NC(=O)C2CCCN(S(=O)(=O)Cc3ccc(Cl)cc3)C2)c1` (centres undefined) it was 1050 s; in that of `CCOc1ccc(N2CC(NC(=O)N3CCN(C(=O)c4ccco4)CC3)CC2=O)cc1` (centres undefined), 632 s; in that of `CCn1cnc2cc(-c3noc(C4CC(=O)N(c5ccccc5)C4)n3)ccc21` (centres undefined), 664 s.

Compound `Cc1nc2cc(N3CCCC(C(=O)NCCN4CCCCCC4)C3)cnc2nc1C` (centres undefined) yielded an RP-LC retention time of 592 s. As to `CCOC(=O)C1CCN(C(=O)c2sc3ncn(CC(=O)N4CCCCC4C)c(=O)c3c2C)CC1` (centres undefined), the RP-LC retention time amounted to 776 s. With `Cc1cc2cc(CNC(=O)NC3CC(=O)N(c4ccccc4)C3)ccc2[nH]1` (centres undefined) the figure was 668 s. With `COc1ccc2[nH]cc(CCN3CC(C(=O)Nc4ccc(C)cc4C)CC3=O)c2c1` (centres undefined) the figure was 775 s; with `Cc1[nH]c2ccc(-c3nnc(SCC(=O)NC(C)c4nc5ccccc5[nH]4)o3)cc2c1C` (centres undefined), 667 s. In the case of `Cn1c(C2CCN(C(=O)Nc3ccc(F)cc3F)CC2)cc(=O)n2nccc12`, the RP-LC retention time turned out to be 647 s. In the case of `CCc1ccc(C(=O)N2CCC3(C2)C(=O)Nc2ccc(OC)cc23)cc1` (centres undefined) it was 786 s; in that of `Cc1ccc(C(=O)N2CCC(N3C(=O)C(O)C34CCCCC4)CC2)s1` (centres undefined), 678 s; in that of `CC1Oc2ccccc2OC1C(=O)NCCn1nc(-c2ccco2)ccc1=O` (centres undefined), 722 s. `O=C(NC1CC1)[C@@H]1OCCN(C2CC2)[C@H]1c1ccccc1` returned an RP-LC retention time of 572 s.

Take `O=C(C1CCN(c2nc3ccc(-c4cccc(F)c4)nc3s2)CC1)N1CCCC1`: the RP-LC retention time amounted to 981 s. With `O=C(Nc1cc(-c2ccsc2)no1)c1ccc(Cl)s1` the figure was 1030 s; with `CC1=C(c2ccc(C)c(C)c2)S(=O)(=O)N=C1N1CCC(NC(=O)C2CCOC2)CC1` (centres undefined), 747 s.

Turning to `O=C(NC1CCCCCCC1)C1CCN(C(=O)c2ccc(F)cc2)CC1`, the RP-LC retention time was 858 s. With `O=C(NCCn1c(=O)n(Cc2ccc(F)cc2)c2cccnc21)c1ccoc1` the figure was 745 s. In the case of `O=C(CN1CC=C(c2cnn(-c3ccccc3)c2)CC1)Nc1ccccc1Cl` it was 690 s; in that of `Cc1c(Cl)cccc1S(=O)(=O)Nc1ccc(Cn2cncn2)cc1`, 775 s; in that of `Nc1nc(Cl)nc2c1ncn2[C@@H]1O[C@H](CO)[C@H](O)C1O` (some centres undefined), 611 s. Consider `Cc1nc(-c2cccc(-c3noc(CNS(=O)(=O)c4ccccc4)n3)c2)cs1`, for which the RP-LC retention time came to 977 s.

Regarding `O=C(Nc1cccnc1)c1cc(-c2ccnc(F)c2)ccc1OCc1ccccc1`, the RP-LC retention time came out at 884 s. In the case of `CCOC(=O)Cc1c(C)c2cc(C(=O)c3ccccc3)c(O)cc2oc1=O` it was 768 s; in that of `Fc1ccccc1CN1CCc2nc(N3CCOCC3)ncc2C1`, 590 s. With `Cc1cc(N2CCC(NC(=O)Nc3cccc(F)c3C)C2=O)ccc1F` (centres undefined) the figure was 904 s. With `CCn1nccc1-c1cccc(-c2noc(-c3ccc(C)s3)n2)c1` the figure was 1250 s; with `Cc1ccc(CN2CCN(CC(C)C(=O)NCc3ccc(F)cc3F)C(=O)C2=O)cc1` (centres undefined), 755 s.

For `CCOc1ccc(S(=O)(=O)N2CCCC2c2nc(-c3ccc(Cl)cc3)no2)cc1` (centres undefined), the RP-LC retention time worked out at 1230 s. In the case of `Cc1cc(C)c2c(-n3cccc3)c(C(=O)N3CCN(c4ccccn4)CC3)sc2n1` it was 675 s; in that of `O=C(NCc1ccccc1F)c1nc(N2CCOCC2)c2ccccc2n1`, 678 s; in that of `CCCn1c(=O)sc2cc(S(=O)(=O)N3CCC(C(=O)Nc4ccc(F)c(F)c4)CC3)ccc21`, 1030 s.

Regarding `CCOc1ccc(N2CC(C)Cn3c2nc2c3c(=O)n(C)c(=O)n2C)cc1` (centres undefined), the RP-LC retention time amounted to 831 s.

`COc1ccc(N2CC(c3noc(-c4cc(F)cc(F)c4)n3)CC2=O)cc1` (centres undefined) came in with an RP-LC retention time of 969 s.

Consider `CCc1cccc(NC(=O)N2CCCC2c2nncn2C2CCCC2)c1` (centres undefined), for which the RP-LC retention time came out at 742 s. The compound `COc1cc([C@@H]2c3cc4c(cc3[C@H](O)[C@@H](CO)[C@@H]2C(=O)N2CCN(C)CC2)OCO4)cc(OC)c1OC` registered an RP-LC retention time of 600 s. For `O=C(NCCC1=CCCCC1)C1CCN(C(=O)c2cccn2-c2cccnc2)CC1`, the RP-LC retention time came out at 1090 s. With `CCn1ccc2sc(C)c(C(=O)NC3CCCC3)c2c1=O` the figure was 733 s.

The compound `CCc1ccccc1NC(=O)Cn1cnc2nc(N3CCCC(C(=O)NC4CC4)C3)sc2c1=O` (centres undefined) came in with an RP-LC retention time of 692 s.

With `O=C(Cn1c(=O)oc2ccccc21)Nc1nc(-c2ccc(Br)cc2)cs1`, the RP-LC retention time came out at 1050 s.

Regarding `COc1ccc(N2CCN(S(=O)(=O)c3cc(-c4nnc(C5CCC5)o4)co3)CC2)cc1`, the RP-LC retention time is 1000 s.

On to `Cc1ccc(NC(=O)CN(C)S(=O)(=O)c2cc(C(=O)N3CCC(C)CC3)n(C)c2)cc1Cl`, for which the RP-LC retention time was determined as 998 s. For the compound `CSc1cccc(NC(=O)Cn2cnc3c(sc4nc(-c5ccccc5)ccc43)c2=O)c1`, the RP-LC retention time is 1040 s.

In the case of `Cc1cccc(C2(O)C(=O)N(Cc3ccc(C#N)cc3)c3ccccc32)c1` (centres undefined), the RP-LC retention time was 825 s. With `CN1C(=O)N(C)C2(CCN(C(=O)c3ccco3)CC2)C1=O` the figure was 597 s. In the case of `CCn1ncn2cc(S(=O)(=O)Nc3cccc(C)c3)cc2c1=O` it was 849 s. Compound `Cc1nc([C@@H]2CN(C(=O)c3cc(C)n(Cc4ccco4)c3C)C[C@H]2C(N)=O)n[nH]1` returned an RP-LC retention time of 618 s. `CCOc1ccc(/C=C/C(=O)Nc2nc(-c3ccc(C)cc3)cs2)cc1OC` returned an RP-LC retention time of 1150 s. Take `COc1ccc(-c2nnc3n2CCN(Cc2ccc(C)o2)C3)cc1`: the RP-LC retention time was 647 s. `O=C(Oc1cccnc1)c1cn(-c2ccc(Cl)cc2)c(=O)c2ccccc12` showed an RP-LC retention time of 947 s. In the case of `COCCN(CC(=O)N1CCc2sccc2C1COc1ccccc1C)C(=O)CC(C)C` (centres undefined) it was 973 s; in that of `CC(NC(=O)c1c(O)c2sccc2[nH]c1=O)c1ccncc1` (centres undefined), 564 s; in that of `COCC1CN(C)CC12CCN(S(=O)(=O)c1cc(F)ccc1C)CC2` (centres undefined), 661 s. In turn, `Cn1ccc2c(cc(C(=O)NCCC3=CCCCC3)n2C)c1=O` registered an RP-LC retention time of 766 s. In the case of `Cc1nc(Cn2cccc2C(=O)Nc2ccc(F)cc2)no1` it was 815 s; in that of `O=C1[C@H]2CCCC[C@H]2C(=O)N1CCCCN1CCN(c2nsc3ccccc23)CC1`, 775 s. With `COc1ccc(S(=O)(=O)N2CC3CN(C(=O)c4cc(C)oc4C)CC(C2)O3)cc1` the figure was 785 s. With `Cc1cc(C(=O)N(CCc2cccs2)Cc2cccnc2)c(C)o1` the figure was 619 s. `Cc1noc(C)c1S(=O)(=O)N1CCC2(CC1)CN(c1ccccc1)C2=O` displayed an RP-LC retention time of 924 s.
